Experiment [1] concerns Culex pipiens pallens. Nature of the experiment: Test Example 1: topical application of acetone solution to the nota of female imagoes, death rate. Format: in vivo. The settings on record: 0.015 μg of the test compound per mosquito, 0.005% (w/v) acetone solution, after 24 hours. The procedure:
A 0.005% (w/v) solution of a test compound in acetone was prepared. The nota of 10 female imagoes of Culex pipiens pallens were treated with the acetone solution in an amount of 0.015 μg of the test compound per mosquito. Then, water and feed were given to the test mosquitoes. After 24 hours, the number of dead mosquitoes was counted, and a death rate was calculated (2 repetitions).

For experiment [2], the system named is Culex pipiens pallens. Kind of experiment: Test Example 2: vapor exposure over treated aluminum dish in an inverted cup, knockdown rate. Particulars: 0.002% (w/v) acetone solution, drug amount about 2 mg per 1 m^2, female imagos, after 60 minutes. Format: in vivo. The procedure: A 0.002% (w/v) solution of a test compound in acetone was prepared. Then, 0.64 ml of the acetone solution was dropped onto the bottom of an aluminum dish having a diameter of 9 cm. Then, acetone was air-dried (drug amount: about 2 mg per 1 m^2). Ten female imagos of Culex pipiens pallens were released in a polyethylene cup (diameter: 9 cm; height: 4.5 cm), and the upper opening portion of the polyethylene cup was covered with a 16 mesh nylon net. Next, the cup was inverted onto the aluminum dish. After 60 minutes, the number of knocked down mosquitoes was counted and a knockdown rate was calculated (2 repetitions). As a result, the knockdown rate of the present compound (1) was 70%.

For `COCc1c(F)c(F)c(COC(=O)[C@@H]2[C@@H](C)C2(C)C)c(F)c1F` [Comparative compound (B), 4-methoxymethyl-2,3,5,6-tetrafluorobenzyl (1R)-trans-2,3,3-trimethylcyclopropanecarboxylate, reference compound], the “Death rate (%)” value in experiment [1] was 55%. Take `C#CCc1c(F)c(F)c(COC(=O)[C@@H]2[C@@H](C)C2(C)C)c(F)c1F` [Present compound (1), 4-(2-propynyl)-2,3,5,6-tetrafluorobenzyl (1R)-trans-2,2,3-trimethylcyclopropanecarboxylate]: in experiment [1], the “Death rate (%)” value came out at 95%. The compound further had a knockdown rate in experiment [2] of 70%.

Values taken from patent US7956089B2, “Cyclopropanecarboxylate and pest controlling composition containing the same” (Sumitomo Chemical Company, Limited, priority 2007, dated 2011).
